# The RepoRT retention time repository
# Structures can show the parent of a compound that is named as a salt.
# Assay: RP, Restek Raptor Biphenyl, 100 × 2.1 mm, 2.7 µm, 50 °C, 0.4 mL/min, estimated dead time 0.55 min; A: water + 0.1% formic acid, pH 3; B: methanol + 0.1% formic acid, pH 3; gradient (min/%B) 0/5 1.12/5 6.41/99.5 10.01/99.5
# Conditions: stereoisomer not certain
row,SMILES,LC retention time
1,CCCCCCCCCCCCCCCCCC(=O)OC(CC(=O)[O-])C[N+](C)(C)C [Stearoyl-L-carnitine],6.13 min
2,O=C(O)CCC(=O)O [Succinic acid],0.909 min
3,Cc1nn(-c2cc(NS(C)(=O)=O)c(Cl)cc2Cl)c(=O)n1C(F)F [Sulfentrazone],5.29 min
4,Cn1c(=O)c2[nH]cnc2n(C)c1=O [THEOPHYLLINE],3.54 min
5,CSc1ncnc2nc[nH]c12 [THIOPURINE S-METHYLETHER],3.77 min
6,Cc1cn(C2CC(O)C(COP(=O)(O)O)O2)c(=O)[nH]c1=O (stereo not given) [THYMIDINE-MONOPHOSPHATE],0.837 min
7,Cc1cn(C2CC(O)C(CO)O2)c(=O)[nH]c1=O (stereo not given) [THYMIDINE],2.18 min
8,NC(=O)C1CCCN1C(=O)C(Cc1cnc[nH]1)NC(=O)C1CCC(=O)N1 (stereo not given) [THYROTROPIN RELEASING HORMONE],1.99 min
9,NC(Cc1c[nH]c2ccccc12)C(=O)O (stereo not given) [TRYPTOPHAN],2.53 min
10,NC(Cc1ccc(O)cc1)C(=O)O (stereo not given) [TYROSINE],0.796 min
11,CC(CCC(=O)NCCS(=O)(=O)O)C1CCC2C3C(O)CC4CC(O)CCC4(C)C3CC(O)C12C (stereo not given) [Taurocholic acid sodium salt hydrate],5.83 min
12,CC(CCC(=O)NCCS(=O)(=O)O)C1CCC2C3CCC4CC(O)CCC4(C)C3CC(O)C12C (stereo not given) [Taurodeoxycholic acid],6.16 min
13,CC(CCC(=O)NCCS(=O)(=O)O)C1CCC2C3CCC4CC(O)CCC4(C)C3CCC12C (stereo not given) [Taurolithocholic acid],6.47 min
14,CCc1ccc(C(=O)NN(C(=O)c2cc(C)cc(C)c2)C(C)(C)C)cc1 [Tebufenozide],6.04 min
15,O=C(Nc1ccccc1)Nc1cnns1 [Thidiazuron],4.75 min
16,CC=C(C)C(=O)NCC(=O)O [Tiglyl Glycine],2.95 min
17,O=C(O)CC(CC(=O)O)C(=O)O [Tricarballylic acid],0.842 min
18,CCCCCCCCCCCCCCCCCCCCCCC(=O)O [Tricosanoic acid],6.91 min

row,SMILES,LC retention time
1,CC1(C)CCC(=Cc2ccc(Cl)cc2)C1(O)Cn1cncn1 (stereo not given) [Triticonazole],5.93 min
2,O=c1cc[nH]c(=O)[nH]1 [URACIL],0.702 min
3,O=c1[nH]c(=O)c2[nH]c(=O)[nH]c2[nH]1 [URATE],0.774 min
4,O=c1[nH]c(=O)c2[nH]cnc2[nH]1 [XANTHINE],0.933 min
5,O=c1[nH]c(=O)c2ncn(C3OC(COP(=O)(O)O)C(O)C3O)c2[nH]1 (stereo not given) [XANTHOSINE-MONOPHOSPHATE],0.695 min
6,O=c1[nH]c(=O)c2ncn(C3OC(CO)C(O)C3O)c2[nH]1 (stereo not given) [XANTHOSINE],1.47 min
7,O=C(O)c1cc(=O)c2cccc(O)c2[nH]1 [Xanthurenic acid],3.14 min
8,CCCCCCCCCC(O)CC(=O)OC(CC(=O)[O-])C[N+](C)(C)C [[(3R)-3-Hydroxydodecanoyl]-L-carnitine],5.15 min
9,CCCCCCCCCCCCCC(O)CC(=O)OC(CC(=O)[O-])C[N+](C)(C)C [[(3R)-3-Hydroxyhexadecanoyl]-L-carnitine],5.77 min
10,"CCCCCC=CCC=CCC=CCC=CCC=CCCC(=O)O [all-cis-4,7,10,13,16-Docosapentaenoic acid]",6.7 min
11,"CCC=CCC=CCC=CCC=CC/C=C\CCCC(=O)O [cis-5,8,11,14,17-Eicosapentaenoic acid]",6.56 min
12,O=C(O)C=C(CC(=O)O)C(=O)O [cis-Aconitic acid],0.818 min
13,CCCCCCCCCC=CC(=O)OC(CC(=O)[O-])C[N+](C)(C)C [trans-2-Dodecenoyl-L-carnitine],5.46 min
14,CCCCCC/C=C/CCCCCCCCCC(=O)O [trans-Vaccenic Acid],6.61 min
15,CC(C)C(=O)C(=O)O [α-Keto Isovaleric Acid Sodium Salt],1.26 min
16,O=C(O)CCC(=O)C(=O)O [α-Ketoglutaric acid],0.722 min
17,CCCCCC=CCC=CCC=CCCCCC(=O)O [γ-Linolenic acid],6.54 min
